Assay results as given in patent publication EP4790066A1, “GLP-1R/GIPR/GCGR TRIPLE AGONIST ANALOGUE AND USE THEREOF” (Shenzhen Bay Laboratory, priority 2023, dated 2025).

Assays:
Type in all cases: cell-based
GCGR [1] = biological target: T1, GCGR (Homo sapiens, UniProt P47871); assay: cAMP method (HTRF cAMP detection kit), HEK293/pGM-CREB-L-Luc/GCG pool; conditions: read-out: EC50 (pM) for each receptor GCGR
T1 construct: expressed in transfected cells

GCGR [2] = biological target: T1, GCGR; assay: CreLuc method (CRE-luciferase reporter), 293HEK/pGM-CREB-L-Luc/GCGR pool; conditions: 6 h incubation, read-out: EC50 (pM) for each receptor GCGR
How it was run: (§1)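 Stable HEK293 pools co-expressing each receptor with a CRE-luciferase reporter were plated at 20,000 cells/well in freestyle medium and treated with compound dilution series for 6 h at 37 °C. Luminescence was read with ONE-GLO to derive EC50.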

GIPR [3] = biological target: T2, GIPR (Homo sapiens, UniProt P48546); assay: cAMP method (HTRF cAMP detection kit), HEK293/pGM-CREB-L-Luc/GIP pool; conditions: read-out: EC50 (pM) for each receptor GIPR
T2 construct: expressed in transfected cells
T2 sequence (P48546 22-466): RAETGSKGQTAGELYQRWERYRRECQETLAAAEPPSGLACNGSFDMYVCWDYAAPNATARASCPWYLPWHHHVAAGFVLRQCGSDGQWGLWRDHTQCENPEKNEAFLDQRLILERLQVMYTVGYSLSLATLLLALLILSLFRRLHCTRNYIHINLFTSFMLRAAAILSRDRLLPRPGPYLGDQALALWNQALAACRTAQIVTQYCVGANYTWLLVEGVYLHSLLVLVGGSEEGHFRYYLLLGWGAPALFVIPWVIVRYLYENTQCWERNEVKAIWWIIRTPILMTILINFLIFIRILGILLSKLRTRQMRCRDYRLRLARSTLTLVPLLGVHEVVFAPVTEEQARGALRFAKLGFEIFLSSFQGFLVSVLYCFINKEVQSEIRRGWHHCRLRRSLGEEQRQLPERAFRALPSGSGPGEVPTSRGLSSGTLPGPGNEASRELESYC

GIPR [4] = biological target: T2, GIPR; assay: CreLuc method (CRE-luciferase reporter), HEK293/pGM-CREB-L-Luc/GIPR pool; conditions: 6 h incubation, read-out: EC50 (pM) for each receptor GIPR
How it was run: as §1

GLP-1R [5] = biological target: T3, GLP-1R (Homo sapiens, UniProt P43220); assay: CreLuc method (CRE-luciferase reporter), HEK293/pGM-CREB-L-Luc/GLP-1R pool; conditions: 6 h incubation, read-out: EC50 (pM) for each receptor GLP-1R
T3 construct: expressed in transfected cells
How it was run: as §1

GLP-1R [6] = biological target: T3, GLP-1R; assay: cAMP method (HTRF cAMP detection kit), HEK293/pGM-CREB-L-Luc/GLP-1 pool; conditions: read-out: EC50 (pM) for each receptor GLP-1R
Experimental: 2. Insulinotropic analogues can bind to target receptors on the cell membrane, activate the receptors, and induce release. The activity of the test substance can be determined using the HTRF method with a cAMP detection kit. Therefore, the cAMP method can be used to detect the target peptide derivatives (or polypeptide derivatives, i.e., TG1-TG86) prepared in Example 1 and Example 2. […] The test cell line was selected, treated with cAMP-specific trypsin for digestion. 3 mL of serum-free DMEM culture medium was added, and the cells were pipetted, resuspended, and counted. 5 µL of IBMX (prepared with serum-free DMEM medium, 0.5 mM) and test cells (5 µL/7500 cells/well) were added in a 384-well plate sequentially. The plate was incubated at 37°C under 5% CO2 for 30 min, followed by the addition of cAMP-d2 (5 µL, 1x) and Anti-cAMP-Cryptate (5 µL, 1x). The mixture was kept at room temperature for 1 h, after which the HTRF value was measured using a chemiluminescent microplate reader, and the determination result was recorded. […] Table 4: EC50 values for target peptide derivatives

T3 sequence (P43220 24-463, species assumed): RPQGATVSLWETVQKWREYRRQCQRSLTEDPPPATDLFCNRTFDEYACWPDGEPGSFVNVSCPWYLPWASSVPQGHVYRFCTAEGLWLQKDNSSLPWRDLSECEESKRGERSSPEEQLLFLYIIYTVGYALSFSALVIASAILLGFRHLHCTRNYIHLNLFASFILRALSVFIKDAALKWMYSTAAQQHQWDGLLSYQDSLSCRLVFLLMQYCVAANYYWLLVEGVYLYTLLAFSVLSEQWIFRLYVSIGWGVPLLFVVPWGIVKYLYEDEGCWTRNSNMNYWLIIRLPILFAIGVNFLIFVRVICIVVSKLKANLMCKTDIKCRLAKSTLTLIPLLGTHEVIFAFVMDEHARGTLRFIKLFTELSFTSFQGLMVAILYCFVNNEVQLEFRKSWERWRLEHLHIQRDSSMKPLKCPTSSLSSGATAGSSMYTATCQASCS
T1 sequence (P47871 26-477, species assumed): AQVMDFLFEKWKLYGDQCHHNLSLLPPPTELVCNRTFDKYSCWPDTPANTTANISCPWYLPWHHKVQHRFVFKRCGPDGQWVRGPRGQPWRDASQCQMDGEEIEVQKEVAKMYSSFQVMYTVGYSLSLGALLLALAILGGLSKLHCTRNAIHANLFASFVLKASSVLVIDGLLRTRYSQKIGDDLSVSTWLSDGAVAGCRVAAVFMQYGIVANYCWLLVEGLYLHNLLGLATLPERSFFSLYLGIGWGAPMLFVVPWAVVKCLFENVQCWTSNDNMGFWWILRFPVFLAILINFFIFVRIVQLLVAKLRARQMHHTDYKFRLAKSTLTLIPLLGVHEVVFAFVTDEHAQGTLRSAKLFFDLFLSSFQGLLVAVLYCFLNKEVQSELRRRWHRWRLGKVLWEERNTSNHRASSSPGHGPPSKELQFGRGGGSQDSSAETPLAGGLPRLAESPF

Molecule `CC[C@H](C)[C@@H]1NC(=O)[C@H](Cc2ccccc2)NC(=O)[C@@H](NC(=O)C(C)(C)NC(=O)[C@H](CCC(N)=O)NC(=O)[C@H](C)NC(=O)[C@H](CCCCNC(C)=O)NC(=O)[C@H](CCCCN)NC(=O)[C@H](CC(=O)O)NC(=O)[C@H](CC(C)C)NC(=O)[C@](C)(CC(C)C)NC(=O)[C@@H](NC(=O)[C@H](CO)NC(=O)[C@H](Cc2ccc(O)cc2)NC(=O)[C@H](CC(=O)O)NC(=O)[C@H](CO)NC(=O)[C@@H](NC(=O)[C@H](Cc2ccccc2)NC(=O)[C@@H](NC(=O)CNC(=O)[C@H](CCC(N)=O)NC(=O)C2(NC(=O)[C@@H](N)Cc3ccc(O)cc3)CCC2)[C@@H](C)O)[C@@H](C)O)[C@@H](C)CC)CSCC(=O)NCCN(C(=O)CCC(=O)NCCOCCOCC(=O)NCCOCCOCC(=O)NCCCC[C@H](NC(=O)CCCCCCCCCCCCCCCCCCC(=O)O)C(=O)O)CCNC(=O)CSC[C@@H](C(=O)NCC(=O)NCC(=O)N2CCC[C@H]2C(=O)N[C@@H](CO)C(=O)N[C@@H](CO)C(=O)NCC(=O)N[C@@H](C)C(=O)N2CCC[C@H]2C(=O)N2CCC[C@H]2C(=O)N2CCC[C@H]2C(=O)N[C@@H](CO)C(N)=O)NC(=O)[C@H](CC(C)C)NC(=O)[C@H](CC(C)C)NC(=O)[C@H](Cc2ccc(O)cc2)NC(=O)[C@H](CCC(=O)O)NC1=O` [TG43] has an EC50 (GCGR [1]) of 3.8 pM, an EC50 (GCGR [2]) of 78.7 pM and an EC50 (GIPR [3]) of 6.4 pM. The EC50 (GIPR [4]) was 13.6 pM, the EC50 (GLP-1R [5]) was 57.1 pM and the EC50 (GLP-1R [6]) was 1.3 pM.
